Test results as given in the supplement of paper PMC11061612.

Tests used:
Assay in all cases: combination Emax (second highest fraction inhibited in the dose matrix, 72 h); higher = more inhibition; extreme values may be limits of the assay
[1] = test system: 23132-87 (Gastric Carcinoma)
Method in brief: (§1)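 Cell lines grown in DMEM/F12 or RPMI with 10% FBS were plated in 1536-well plates and held 24 hours at 37°C, 5% CO2 before 72 hours of exposure to two-drug dose matrices, with DMSO typically at 0.2%. CellTiter-Glo 2.0 luminescence gave viability, which was converted to inhibition. Vehicle wells were set to 0 and blank wells to 1. Combination Emax is the second-highest inhibition in the matrix, and Bliss excess is the observed combination effect minus the expected EA + EB − EA·EB, where EA and EB are the single-agent effects.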

[2] = test system: MKN45 (Gastric Carcinoma)
Method in brief: as §1

[3] = test system: HCT-15 (Colorectal Carcinoma)
Method in brief: as §1

[4] = test system: NCI-H23 (Lung Adenocarcinoma)
Method in brief: as §1

IST-MES1 (Mesothelioma) = test system: IST-MES1 (Mesothelioma)
Method in brief: as §1

[5] = test system: PSN1 (Pancreatic Carcinoma)
Method in brief: as §1

[6] = test system: LB996-RCC (Kidney Carcinoma)
Method in brief: as §1

A2058 (Melanoma) = test system: A2058 (Melanoma)
Method in brief: as §1

[7] = test system: RERF-GC-1B (Gastric Carcinoma)
Method in brief: as §1

WM793B (Melanoma) = test system: WM793B (Melanoma)
Method in brief: as §1

[8] = test system: COLO-680N (Esophageal Squamous Cell Carcinoma)
Method in brief: as §1

[9] = test system: LK-2 (Squamous Cell Lung Carcinoma)
Method in brief: as §1

[10] = test system: SHP-77 (Small Cell Lung Carcinoma)
Method in brief: as §1

[11] = test system: SK-PN-DW (Other Solid Carcinomas)
Method in brief: as §1

[12] = test system: OVMIU (Ovarian Carcinoma)
Method in brief: as §1

GB-1 (Glioblastoma) = test system: GB-1 (Glioblastoma)
Method in brief: as §1

[13] = test system: GP5d (Colorectal Carcinoma)
Method in brief: as §1

[14] = test system: CAL-120 (Breast Carcinoma)
Method in brief: as §1

WM278 (Melanoma) = test system: WM278 (Melanoma)
Method in brief: as §1

[15] = test system: RERF-LC-Sq1 (Squamous Cell Lung Carcinoma)
Method in brief: as §1

| Structure (SMILES) | combination Emax [1] | combination Emax [2] | combination Emax [3] | combination Emax [4] | combination Emax (IST-MES1 (Mesothelioma)) | combination Emax [5] | combination Emax [6] | combination Emax (A2058 (Melanoma)) | combination Emax [7] | combination Emax (WM793B (Melanoma)) | combination Emax [8] | combination Emax [9] | combination Emax [10] | combination Emax [11] | combination Emax [12] | combination Emax (GB-1 (Glioblastoma)) | combination Emax [13] | combination Emax [14] | combination Emax (WM278 (Melanoma)) | combination Emax [15] |
| --- | --- | --- | --- | --- | --- | --- | --- | --- | --- | --- | --- | --- | --- | --- | --- | --- | --- | --- | --- | --- |
| Cc1cc2ncnn2cc1Nc1ncc2c(n1)n(C1CCOCC1)c(=O)n2C [AZD7648] + C=CCn1c(=O)c2cnc(Nc3ccc(N4CCN(C)CC4)cc3)nc2n1-c1cccc(C(C)(C)O)n1 [AZD1775] (first compound max 10 µM, partner max 1 µM) | 0.659 | 0.804 | 0.736 | 0.786 | 0.402 | 0.557 | 0.762 | 0.24 | 0.788 | 0.584 | 0.353 | 0.894 | 0.432 | 0.875 | 0.635 | 0.439 | 0.704 | 0.498 | 0.254 | 0.672 |
| Cc1cc2ncnn2cc1Nc1ncc2c(n1)n(C1CCOCC1)c(=O)n2C [AZD7648] + CCN(CCO)CCCOc1ccc2c(Nc3cc(CC(=O)Nc4cccc(F)c4)[nH]n3)ncnc2c1 [AZD2811] (first compound max 10 µM, 7x7, partner max 1 µM) | 0 | 0.446 | 0.455 | 0.228 | 0.31 | 0.397 | 0.363 | 0.247 | 0.281 | 0.411 | 0.236 | 0.742 | 0.258 | 0.696 | 0.444 | 0.166 | 0.478 | 0.334 | 0.157 | 0.261 |
| Cc1cc2ncnn2cc1Nc1ncc2c(n1)n(C1CCOCC1)c(=O)n2C [AZD7648] + CN(C)CCCOc1ccc(-c2ccc3ncc4c(c3c2)n(C2CCOCC2)c(=O)n4C)cn1 [AZD0156] (first compound max 10 µM, 7x7, partner max 1 µM) | 0.0669 | 0.428 | 0.267 | 0.103 | 0.239 | 0.38 | 0.339 | 0.182 | 0.29 | 0.361 | 0.188 | 0.269 | 0.223 | 0.303 | 0.474 | 0.19 | 0.293 | 0.414 | 0.188 | 0.197 |
| Cc1cc2ncnn2cc1Nc1ncc2c(n1)n(C1CCOCC1)c(=O)n2C [AZD7648] + C[C@@H]1COCCN1C2=NC(=NC(=C2)C3(CC3)[S@](=N)(=O)C)C4=C5C=CNC5=NC=C4 [AZD6738] (first compound max 10 µM, 7x7, partner max 10 µM) | 0.841 | 0.793 | 0.835 | 0.603 | 0.313 | 0.418 | 0.668 | 0.271 | 0.457 | 0.818 | 0.265 | 0.39 | 0.493 | 0.943 | 0.528 | 0.544 | 0.822 | 0.325 | 0.33 | 0.804 |
| Cc1cc2ncnn2cc1Nc1ncc2c(n1)n(C1CCOCC1)c(=O)n2C [AZD7648] + O=C(c1cc(Cc2n[nH]c(=O)c3ccccc23)ccc1F)N1CCN(C(=O)C2CC2)CC1 [Olaparib] (first compound max 10 µM, 7x7, partner max 10 µM) | 0.239 | 0.264 | 0.501 | 0.213 | 0.234 | 0.31 | 0.423 | 0.0679 | 0.228 | 0.341 | 0.101 | 0.335 | 0.233 | 0.395 | 0.306 | 0.23 | 0.28 | 0.149 | 0.0954 | 0.314 |
| NC1(C(=O)N[C@@H](CCO)c2ccc(Cl)cc2)CCN(c2ncnc3[nH]ccc23)CC1 [Capivasertib] + CC(=O)c1c(C)c2cnc(Nc3ccc(N4CCNCC4)cn3)nc2n(C2CCCC2)c1=O [Palbociclib] (first compound max 10 µM, 7x7, partner max 10 µM) | 0.428 | 0.628 | 0.665 | 0.512 | 0.303 | 0.484 | 0.781 | 0.638 | 0.458 | 0.548 | 0.197 | 0.205 | 0.499 | 0.615 | 0.383 | 0.476 | 0.648 | 0.561 | 0.402 | 0.873 |
| NC1(C(=O)N[C@@H](CCO)c2ccc(Cl)cc2)CCN(c2ncnc3[nH]ccc23)CC1 [Capivasertib] + CC(C)n1c(=O)n(C)c2cnc3cc(F)c(-c4ccc(OCCCN5CCCCC5)nc4)cc3c21 [AZD1390] (first compound max 10 µM, 7x7, partner max 0.3 µM) | 0.165 | 0.432 | 0.312 | 0.297 | 0.249 | 0.256 | 0.645 | 0.458 | 0.433 | 0.438 | 0.197 | 0.0982 | 0.226 | 0.597 | 0.353 | 0.275 | 0.669 | 0.454 | 0.316 | 0.841 |
| NC1(C(=O)N[C@@H](CCO)c2ccc(Cl)cc2)CCN(c2ncnc3[nH]ccc23)CC1 [Capivasertib] + CCN(CCO)CCCOc1ccc2c(Nc3cc(CC(=O)Nc4cccc(F)c4)[nH]n3)ncnc2c1 [AZD2811] (first compound max 10 µM, 7x7, partner max 1 µM) | 0.224 | 0.486 | 0.394 | 0.387 | 0.322 | 0.371 | 0.71 | 0.798 | 0.542 | 0.527 | 0.195 | 0.925 | 0.271 | 0.83 | 0.381 | 0.342 | 0.718 | 0.49 | 0.431 | 0.892 |
| NC1(C(=O)N[C@@H](CCO)c2ccc(Cl)cc2)CCN(c2ncnc3[nH]ccc23)CC1 [Capivasertib] + COc1nnc2ccc(N3CCC(c4ccc(OCCN5CCN(C)C(=O)[C@H]5C)cc4)CC3)nn12 [AZD5153] (first compound max 10 µM, 7x7, partner max 1 µM) | 0.659 | 0.58 | 0.717 | 0.773 | 0.45 | 0.256 | 0.72 | 0.882 | 0.617 | 0.616 | 0.276 | 0.422 | 0.607 | 0.74 | 0.665 | 0.48 | 0.873 | 0.647 | 0.734 | 1 |
| NC1(C(=O)N[C@@H](CCO)c2ccc(Cl)cc2)CCN(c2ncnc3[nH]ccc23)CC1 [Capivasertib] + C[C@@H]1COCCN1C2=NC(=NC(=C2)C3(CC3)[S@](=N)(=O)C)C4=C5C=CNC5=NC=C4 [AZD6738] (first compound max 10 µM, 7x7, partner max 10 µM) | 0.616 | 0.753 | 0.738 | 0.87 | 0.522 | 0.536 | 0.823 | 0.805 | 0.558 | 0.842 | 0.373 | 0.675 | 0.424 | 0.925 | 0.62 | 0.563 | 0.829 | 0.708 | 0.579 | 0.873 |
| NC1(C(=O)N[C@@H](CCO)c2ccc(Cl)cc2)CCN(c2ncnc3[nH]ccc23)CC1 [Capivasertib] + Cn1cnc2c(F)c(Nc3ccc(Br)cc3Cl)c(C(=O)NOCCO)cc21 [Selumetinib] (first compound max 10 µM, 7x7, partner max 10 µM) | 0.396 | 0.705 | 0.559 | 0.454 | 0.366 | 0.772 | 0.678 | 0.895 | 0.6 | 0.768 | 0.392 | 0.467 | 0.384 | 0.597 | 0.585 | 0.588 | 0.807 | 0.444 | 0.722 | 0.917 |
| Cc1nc(Nc2ncc(C(=O)Nc3c(C)cccc3Cl)s2)cc(N2CCN(CCO)CC2)n1 [Dasatinib] + CC(=O)Nc1cccc(-n2c(=O)n(C3CC3)c(=O)c3c(Nc4ccc(I)cc4F)n(C)c(=O)c(C)c32)c1 [Trametinib] (first compound max 2 µM, 7x7, partner max 1 µM) | 0.315 | 0.79 | 0.71 | 0.765 | 0.924 | 0.942 | 0.893 | 0.644 | 1 | 0.705 | 0.554 | 0.63 | 0.172 | 0.141 | 0.798 | 0.701 | 0.697 | 0.525 | 0.808 | 0.562 |
| COc1cccc2c1C(=O)c1c(O)c3c(c(O)c1C2=O)C[C@@](O)(C(=O)CO)C[C@@H]3O[C@H]1C[C@H](N)[C@H](O)[C@H](C)O1 [Doxorubicin] + Cc1cc2ncnn2cc1Nc1ncc2c(n1)n(C1CCOCC1)c(=O)n2C [AZD7648] (first compound max 1 µM, 7x7, partner max 10 µM) | 0.82 | 0.821 | 0.742 | 0.588 | 0.767 | 0.788 | 0.796 | 0.583 | 0.779 | 0.801 | 0.67 | 0.632 | 0.562 | 0.814 | 0.861 | 0.418 | 0.693 | 0.47 | 0.631 | 0.627 |
